# Assay results: ChEMBL document CHEMBL4406816, “Role of sulphur-heterocycles in medicinal chemistry: An update” (Eur J Med Chem, 2019)
# System: Mycobacterium tuberculosis
# Assay: Antitubercular activity against multidrug resistant Mycobacterium tuberculosis
# Format: functional
compound,measurement,value
O=C(N/N=C/c1ccc([N+](=O)[O-])cc1)[C@H]1CSC(c2ccc(F)cc2)N1 (stereo partly specified),MIC,1.33 µM
